From patent US11555032B2, “Isoxazole derivatives as FXR agonists and methods of use thereof” (Enanta Pharmaceuticals, Inc., priority 2019, dated 2023)
pEC50: −log10 of the molar value.

Molecular target: T1, human FXR (NR1H4) (Homo sapiens, UniProt Q96RI1)
T1 construct: host or cells: CHO (Chinese hamster ovary) reporter cells
T1 sequence (Q96RI1 1-486): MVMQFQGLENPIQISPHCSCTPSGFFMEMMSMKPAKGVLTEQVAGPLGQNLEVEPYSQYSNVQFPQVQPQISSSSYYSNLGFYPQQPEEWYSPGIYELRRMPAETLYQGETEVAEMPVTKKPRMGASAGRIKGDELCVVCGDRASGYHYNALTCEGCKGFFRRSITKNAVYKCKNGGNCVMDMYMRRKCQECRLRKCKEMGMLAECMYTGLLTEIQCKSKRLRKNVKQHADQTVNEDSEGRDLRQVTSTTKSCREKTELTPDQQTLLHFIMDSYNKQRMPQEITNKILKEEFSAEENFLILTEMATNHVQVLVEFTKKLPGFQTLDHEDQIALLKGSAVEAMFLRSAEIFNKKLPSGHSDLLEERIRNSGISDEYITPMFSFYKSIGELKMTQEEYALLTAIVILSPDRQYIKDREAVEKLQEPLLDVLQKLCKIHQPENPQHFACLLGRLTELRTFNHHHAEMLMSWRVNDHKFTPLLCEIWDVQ
Experiment: Human FXR (NRIH4) Assay, luciferase reporter
Assay type: cell-based
Conditions: CHO reporter cells expressing human NR1H4, luciferase, 22 hours incubation
Description: Determination of a ligand mediated Gal4 promoter driven transactivation to quantify ligand binding mediated activation of FXR. FXR Reporter Assay kit purchased from Indigo Bioscience (Catalogue number: IB00601) to determine the potency and efficacy of compound developed by Enanta that can induce FXR activation. The principle application of this reporter assay system is to quantify functional activity of human FXR. The assay utilizes non-human mammalian cells, CHO (Chinese hamster ovary) cells engineered to express human NR1H4 protein (referred to as FXR). Reporter cells also incorporate the cDNA encoding beetle luciferase which catalyzes the substrates and yields photon emission. Luminescence intensity of the reaction is quantified using a plate-reading luminometer, Envision. Reporter Cells include the luciferase reporter gene functionally linked to an FXR responsive promoter. Thus, quantifying changes in luciferase expression in the treated reporter cells provides a sensitive surrogate measure of the changes in FXR activity. EC50 and efficacy (normalize to CDCA set as 100%) is determined by XLFit. The assay is according to the manufacturer's instructions. In brief, the assay was performed in white, 96 well plates using final volume of 100 ul containing cells with different doses of compounds. Retrieve Reporter Cells from −80° C. storage. Perform a rapid thaw of the frozen cells by transferring a 10 ml volume of 37° C. cell recovery medium into the tube of frozen cells. Recap the tube of Reporter Cells and immediately place it in a 37° C. water bath for 5-10 minutes. Retrieve the tube of Reporter Cell Suspension from the water bath. Sanitize the outside surface of the tube with a 70% alcohol swab, and then transfer it into the cell culture hood. Dispense 90 μl of cell suspension into each well of the 96-well Assay Plate. Transfer the plate into 37° C. incubator, allowing the cells adherent to the bottom of the well. Dilute compounds in Dilution Plate (DP), and administrate to cells at Assay Plate (AP). DMSO content of the samples was kept at 0.2%. Cells were incubated for additional 22 hours before luciferase activities were measured. Thirty minutes before intending to quantify FXR activity, remove Detection Substrate and Detection Buffer from the refrigerator and place them in a low-light area so that they may equilibrate to room temperature. Remove the plate's lid and discard all media contents by ejecting it into an appropriate waste container. Gently tap the inverted plate onto a clean absorbent paper towel to remove residual droplets. Cells will remain tightly adhered to well bottoms. Add 100 μl of luciferase detection reagent to each well of the assay plate. Allow the assay plate to rest at room temperature for at least 5 minutes following the addition of LDR. Set the instrument (Envision) to perform a single 5 second “plate shake” prior to reading the first assay well. Read time may be 0.5 second (500 mSec) per well. EC50 and Efficacy (normalize to CDCA set as 100%) is determined by XLFit.
The efficacy was normalized to CDCA set as 100%.

pEC50, < 6.30:
Fc1ccc(CCNC2C3CCC2CC(OCc2c(-c4ccccc4OC(F)(F)F)noc2C2CC2)C3)cc1 (centres unmarked) [Example 15-2]
O=C(O)c1cc(F)cc2ncc(NC3C4CCC3CC(OCc3c(-c5ccccc5OC(F)(F)F)noc3C3CC3)C4)nc12 (centres unmarked) [Example 26]

pEC50, 6.30 to 7.60:
Fc1c(Br)cccc1CNC1C2CCC1CC(OCc1c(-c3ccccc3OC(F)(F)F)noc1C1CC1)C2 [Example 15, (1R,3r,5S,8s)-N-(3-bromo-2-fluorobenzyl)-3-((5-cyclopropyl-3-(2-(trifluoromethoxy)phenyl)isoxazol-4-yl)methoxy)bicyclo[3.2.1]octan-8-amine]
O=C(O)c1cc(F)c2nc(NC3C4CCC3CC(NCc3c(-c5ccccc5OC(F)(F)F)noc3C3CC3)C4)sc2c1 (centres unmarked) [Example 16]
O=C(O)c1ccc2c(c1)CN(C1C3CCC1CC(OCc1c(-c4c(Cl)cccc4Cl)noc1C1CC1)C3)C2 (centres unmarked) [Example 17]
CC(C)Oc1cc(C(=O)O)cc2sc(OC3C4CCC3CC(OCc3c(-c5ccccc5OC(F)(F)F)noc3C3CC3)C4)nc12 (centres unmarked) [Example 18]
FC(F)(F)Oc1ccccc1-c1noc(C2CC2)c1COC1CC2CCC(C1)C2Nc1cnc2cc(-c3nnn[nH]3)ccc2n1 (centres unmarked) [Example 25]
N#Cc1cc(C2CC2)cc2nc(NC3C4CCC3CC(OCc3c(-c5ccccc5OC(F)(F)F)noc3C3CC3)C4)cnc12 (centres unmarked) [Example 27]
O=C(O)c1ccc2ccc(NC3C4CCC3CC(OCc3c(-c5ccccc5OC(F)(F)F)noc3C3CC3)C4)nc2c1 (centres unmarked) [Example 31]
N#Cc1cc(C2CC2)c2nc(NC3C4CCC3CC(OCc3c(-c5ccccc5OC(F)(F)F)noc3C3CC3)C4)sc2c1 (centres unmarked) [Example 38]
O=C(O)c1cc(F)c2nc(S(=O)(=O)C3C4CCC3CC(OCc3c(-c5ccccc5OC(F)(F)F)noc3C3CC3)C4)sc2c1 (centres unmarked) [Example 45]
N#Cc1cccc2ncc(NC3C4CCC3CC(OCc3c(-c5ccccc5OC(F)(F)F)noc3C3CC3)C4)nc12 (centres unmarked) [Example 47]

pEC50, > 7.60:
FC(F)(F)Oc1ccccc1-c1noc(C2CC2)c1COC1CC2CCC(C1)C2Nc1cnc2c(-c3nnn[nH]3)cc(C3CC3)cc2n1 (centres unmarked) [Example 28]
O=C(O)c1ccc2nc(NC3C4CCC3CC(OCc3c(-c5ccccc5OC(F)(F)F)noc3C3CC3)C4)cnc2c1 (centres unmarked) [Example 29]
O=C(O)c1cc(C2CC2)cc2nc(NC3C4CCC3CC(OCc3c(-c5ccccc5OC(F)(F)F)noc3C3CC3)C4)cnc12 (centres unmarked) [Example 30]
Fc1cc(-c2nnn[nH]2)c2ncc(NC3C4CCC3CC(OCc3c(-c5ccccc5OC(F)(F)F)noc3C3CC3)C4)nc2c1 (centres unmarked) [Example 32]
CC1(S(=O)(=O)NC(=O)c2cccc3nc(NC4C5CCC4CC(OCc4c(-c6ccccc6OC(F)(F)F)noc4C4CC4)C5)cnc23)CC1 (centres unmarked) [Example 33]
O=C(NS(=O)(=O)C1CC1)c1cccc2nc(NC3C4CCC3CC(OCc3c(-c5ccccc5OC(F)(F)F)noc3C3CC3)C4)cnc12 (centres unmarked) [Example 34]
N#Cc1ccc2nc(NC3C4CCC3CC(OCc3c(-c5ccccc5OC(F)(F)F)noc3C3CC3)C4)cnc2c1 (centres unmarked) [Example 35]
O=C(O)c1cc(C2CC2)c2nc(NC3C4CCC3CC(OCc3c(-c5ccccc5OC(F)(F)F)noc3C3CC3)C4)sc2c1 (centres unmarked) [Example 36]
O=C(O)c1cc(OC(F)(F)F)c2nc(NC3C4CCC3CC(OCc3c(-c5ccccc5OC(F)(F)F)noc3C3CC3)C4)sc2c1 (centres unmarked) [Example 37]
O=C(O)c1cc(F)cc2nc(NC3C4CCC3CC(OCc3c(-c5ccccc5OC(F)(F)F)noc3C3CC3)C4)cnc12 (centres unmarked) [Example 39]
N#Cc1cc(F)cc2nc(NC3C4CCC3CC(OCc3c(-c5ccccc5OC(F)(F)F)noc3C3CC3)C4)cnc12 (centres unmarked) [Example 40]
O=C(O)c1ccc2nc(NC3C4CCC3CC(OCc3c(-c5ccccc5OC(F)(F)F)noc3C3CC3)C4)cnc2c1 (centres unmarked) [Example 41]
FC(F)(F)Oc1ccccc1-c1noc(C2CC2)c1COC1CC2CCC(C1)C2Nc1cnc2c(-c3nnn[nH]3)cccc2n1 (centres unmarked) [Example 46]
N#Cc1cccc2nc(NC3C4CCC3CC(OCc3c(-c5ccccc5OC(F)(F)F)noc3C3CC3)C4)cnc12 (centres unmarked) [Example 48]
